The source of these data is patent publication US9790174B2, “Kinase inhibitors” (Respivert Limited, priority 2013, dated 2017).

The subject of data set [1] is d-U937 cells. Kind of data set: Accumulation of β catenin in d-U937 cells. The note with it: relative to Reference Compound at 1 μg/mL. The class given is cell-based, human. As to the method:
U937 cells, a human monocytic cell line, are differentiated into macrophage-type cells by incubation with PMA (100 ng/mL) for between 48 to 72 hr. The cells are then incubated with either final concentrations of test compound or vehicle for 18 hr. The induction of β-catenin by the test compounds is stopped by replacing the media with 4% formaldehyde solution. Endogenous peroxide activity is neutralised by incubating with quenching buffer (100 μL, 0.1% sodium azide, 1% H2O2 in PBS with 0.05% Tween-20) for 20 min. The cells are washed with washing buffer (200 pt; PBS containing 0.05% Tween-20) and incubated with blocking solution (200 pt; 5% milk in PBS) for 1 hr, re-washed with washing buffer (200 pt) and then incubated overnight with anti-β-catenin antibody solution (50 μL) in 1% BSA/PBS (BD, Oxford, UK).
After washing with washing buffer (3×200 pt; PBS containing 0.05% Tween-20), cells are incubated with a HRP-conjugated secondary antibody solution (100 μL) in 1% BSA/PBS (Dako, Cambridge, UK) and the resultant signal is determined colourimetrically (OD: 450 nm with a reference wavelength of 655 nm) using TMB substrate (50 μL; R&D Systems, Abingdon, UK). This reaction is stopped by addition of 1N H2SO4 solution (50 μL). Cells are then washed with washing buffer and 2% crystal violet solution (50 μL) is applied for 30 min. After washing with washing buffer (3×200 μL), 1% SDS (100 μL) is added to each well and the plates are shaken lightly for 1 hr prior to measuring the absorbance at 595 nm (Varioskan® Flash, Thermo-Fisher Scientific).
The measured OD450-655 readings are corrected for cell number by dividing the OD450-655 by the OD595 readings.

Data set [2] relates to adoptive transfer colitis. Put plainly: Adoptive transfer in mice. The class given is in vivo, SCID mice. Conditions: for levels of pro-inflammatory cytokines in samples of colon tissue: adoptive transfer model. The method, then:
On Study day 0, female Balb/C mice are terminated and spleens obtained for CD45RB^high cell isolation (Using SCID IBD cell Separation protocol). Approximately 4×10^5 cells/mL CD45RB^high cells are then injected intraperitoneally (100 μL/mouse) into female SCID animals. On study day 14, mice are weighed and randomized into treatment groups based on body weight. On Day 14, compounds are administered BID, via oral gavage, in a peanut oil vehicle at the dose levels outlined below in Tables 6a and 6b and a dose volume of 5 mL/kg. Treatment continues until study day 42, at which point the animals are necropsied 4 hours after the morning administration. The colon length and weight are recorded and used as a secondary endpoint in the study as a measurement of colon oedema. The colon is then divided into six cross-sections, four of which are used for histopathology scoring (primary endpoint) and two are homogenised for cytokine analysis. Data shown is the % inhibition of the induction window between nave animals and vehicle animals, where higher inhibition implies closer to the non-diseased, nave, phenotype.

In data set [3] the test system is Salmonella typhimurium, strains TA98 and TA100. Kind of data set: Mutagenicity assessment (bacterial reverse mutation screen). The class given is cell-based. The note with it: TA98 and TA100, presence or absence of S-9 mix. The method, then:
Studies were conducted by Sequani (Ledbury, Herefordshire, UK) to assess compounds of the invention for their ability to induce mutations in two histidine dependent auxotrophic mutants of Salmonella typhimurium, strains TA98 and TA100 in vitro.
The mutation screen was conducted using the plate incorporation method and was performed in both the presence and absence of S-9 mix (a liver post-mitochondrial fraction derived from the livers of Aroclor 1254 treated rats). The bacteria were exposed to test compounds dissolved in dimethylsulphoxide, which solvent was also used as the negative control. The dose levels used were 0.32, 1.6, 8, 40, 200, 1000 or 5000 μg/plate.

Data set [4] deals with B-Raf (V600E) (Homo sapiens (Human), UniProt P15056, V600E). Put plainly: KINOMEscan binding of kinase to standard ligand. As to the method:
(§1) Kinase enzyme binding activities of compounds disclosed herein may be determined using a proprietary assay which measures active site-directed competition binding to an immobilized ligand (Fabian, M. A. et al., Nature Biotechnol., 2005, 23:329-336). These assays may be conducted by DiscoverX (formerly Ambit; San Diego, Calif.). The percentage inhibition produced by incubation with a test compound may be calculated relative to the non-inhibited control.

The target in data set [5] is B-Raf (Homo sapiens (Human), UniProt P15056). Kind of data set: KINOMEscan binding of kinase to standard ligand. The method, then:
as §1

The test system of data set [6] is non-mutant kinases. Put plainly: KinomeScan selectivity scores. The data set is classed as binding. The note with it: evidenced by lower selectivity scores. The method, then:
These assays may be conducted by DiscoverX (formerly Ambit; San Diego, Calif.). The percentage inhibition produced by incubation with a test compound may be calculated relative to the non-inhibited control.

Data set [7] has as its system TNBS-induced colitis. Put plainly: TNBS-induced colitis in mice. The data set is classed as in vivo, BDF1 mice. Conditions: conducted over 2 days; oral. As to the method: Non-fasted, 10-12 week old, male BDF1 mice are dosed by oral gavage twice daily with either vehicle (5 mL/kg), reference item (Budesonide 2.5 mg/kg) or test compound (1 or 5 mg/kg) one day before (Day −1) stimulation of the inflammatory response by treatment with 2,4,6-trinitrobenzenesulphonic acid (TNBS) (15 mg/mL in 50% ethanol/50% saline). On Day 0 of the study TNBS (200 μL) is administered intra-colonically via a plastic catheter with BID dosing of the vehicle, reference or test compound continuing for 2 or 4 days. During the study, animals are weighed every day and stool observations are made and recorded as a score, based on stool consistency. At the time of sacrifice on Day 2 (or Day 4), the large intestine is removed and the length and weight recorded. Sections of the colon are taken for histopathology scoring to determine disease severity.

For data set [8], the system named is intestinal mucosa biopsies from ulcerative colitis patients. Put plainly: Human biopsy assay (cytokine release from intestinal mucosa biopsies). The data set is classed as cell-based. The note with it: 1 μg/mL, 24 hours. As to the method:
Intestinal mucosa biopsies are obtained from the inflamed regions of the colons of IBD patients. The biopsy material is cut into small pieces (2-3 mm) and placed on steel grids in an organ culture chamber at 37° C. in a 5% CO2/95% O2 atmosphere in serum-free media. DMSO control or test compounds at the desired concentration are added to the tissue and incubated for 24 hr in the organ culture chamber. The supernatant is harvested for determination of IL-6, IL-8, IL-1β and TNFα levels by R&D ELISA.

Data set [9] concerns rat, Cynomolgus macaque or human hepatocytes. Kind of data set: Analysis of metabolites in hepatocytes. The data set is classed as in vitro ADME. Conditions: 10 μM, 0, 60 and 90 minutes. As to the method:
Studies were conducted by BioFocus (Saffron Walden, UK) to determine the metabolic fate of the compound of Example 16 following incubation with rat, Cynomolgus macaque or human hepatocytes.
Separate incubations (n=3) of the compound of Example 16 (10 μM initial concentration) or DMSO control, were performed with cryopreserved hepatocytes from each species (0.5 million cell/mL) at 37° C. for 0, 60 and 90 minutes before termination of reactions and compound extraction with acetonitrile. Sample replicates were pooled prior to analysis.
Potential metabolites were identified using time-of-flight (TOF) and triple quadruple (TQ) mass spectrometers.

The test system of data set [10] is endotoxin-induced uveitis. Kind of data set: Endotoxin-induced uveitis in rats. The class given is in vivo, Lewis rats. Conditions: rats treated with intravitreal endotoxin LPS. The method, then:
Male, Lewis rats (6-8 weeks old, Charles River UK Limited) are housed in cages of 3 at 19-21° C. with a 12 h light/dark cycle (07:00/19:00) and fed a standard diet of rodent chow and water ad libitum. Non-fasted rats are weighed, individually identified on the tail with a permanent marker, and receive a single intravitreal administration into the right vitreous humor (5 μL dose volume) of 100 ng/animal of LPS (Escherichia coli 0111:B4 prepared in PBS, Sigma Aldrich, UK) using a 32-gauge needle. Untreated rats are injected with PBS. […] Following euthanasia, the right eye of each animal is enucleated and dissected into front (anterior) and back (posterior) sections around the lens. Each section is weighed and homogenised in 500 μL of sterile phosphate buffered saline followed by 20 minutes centrifugation at 12000 rpm at 4° C.

The target of data set [11] is CYP2C9 (Homo sapiens (Human), UniProt P11712). Put plainly: CYP2C9 inhibition studies. The data set is classed as in vitro ADME. The method, then: Assessment of certain in vitro ADME (absorption, distribution, metabolism, and excretion) parameters for certain compounds of the invention was conducted by BioFocus (Saffron Walden, UK).
Chain of CYP2C9 (P11712 whole entry): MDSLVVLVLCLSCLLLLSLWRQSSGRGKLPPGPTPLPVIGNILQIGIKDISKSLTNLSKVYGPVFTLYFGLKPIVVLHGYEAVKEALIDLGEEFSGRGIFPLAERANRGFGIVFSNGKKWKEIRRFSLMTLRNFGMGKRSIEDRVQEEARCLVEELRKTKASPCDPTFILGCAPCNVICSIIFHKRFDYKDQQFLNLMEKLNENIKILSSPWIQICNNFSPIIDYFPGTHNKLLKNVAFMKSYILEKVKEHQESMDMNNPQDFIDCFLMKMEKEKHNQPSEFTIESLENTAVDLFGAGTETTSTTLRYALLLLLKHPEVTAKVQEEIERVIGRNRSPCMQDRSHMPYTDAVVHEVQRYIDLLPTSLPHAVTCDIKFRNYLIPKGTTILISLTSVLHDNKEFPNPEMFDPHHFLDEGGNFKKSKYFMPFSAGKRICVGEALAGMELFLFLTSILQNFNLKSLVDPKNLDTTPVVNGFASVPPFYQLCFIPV

Chain of B-Raf (P15056 whole entry): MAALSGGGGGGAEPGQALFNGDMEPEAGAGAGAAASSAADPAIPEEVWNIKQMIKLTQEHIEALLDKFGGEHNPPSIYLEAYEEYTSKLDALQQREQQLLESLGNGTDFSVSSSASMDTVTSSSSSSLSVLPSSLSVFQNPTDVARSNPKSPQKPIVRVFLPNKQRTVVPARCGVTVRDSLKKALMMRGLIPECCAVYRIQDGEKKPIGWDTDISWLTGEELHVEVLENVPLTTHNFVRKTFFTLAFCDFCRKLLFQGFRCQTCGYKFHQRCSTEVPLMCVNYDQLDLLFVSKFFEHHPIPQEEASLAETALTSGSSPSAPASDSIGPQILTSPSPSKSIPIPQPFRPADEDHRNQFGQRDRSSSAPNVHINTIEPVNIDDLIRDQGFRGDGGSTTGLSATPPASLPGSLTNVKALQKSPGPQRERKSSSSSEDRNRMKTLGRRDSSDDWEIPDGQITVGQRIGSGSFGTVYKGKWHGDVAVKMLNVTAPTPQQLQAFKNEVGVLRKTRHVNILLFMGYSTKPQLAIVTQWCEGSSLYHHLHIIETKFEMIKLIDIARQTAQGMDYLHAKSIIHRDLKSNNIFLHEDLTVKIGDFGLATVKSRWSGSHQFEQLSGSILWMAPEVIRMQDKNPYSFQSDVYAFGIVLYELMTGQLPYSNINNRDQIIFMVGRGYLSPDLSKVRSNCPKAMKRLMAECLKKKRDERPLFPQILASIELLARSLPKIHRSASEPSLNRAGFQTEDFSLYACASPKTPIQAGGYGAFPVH
Chain of B-Raf (V600E) (P15056 whole entry V600E): as the sequence (P15056 whole entry) above, with V600E counted along it

In the case of `COCCOCCOCCOc1cc(Nc2nccc(Oc3ccc(NC(=O)Nc4cc(C(C)(C)C)cc(NS(=O)(=O)N5CCOCC5)c4OC)c4ccccc34)n2)cc(OC)c1` [83(b), N-(5-(tert-butyl)-2-methoxy-3-(3-(4-((2-((3-methoxy-5-(2-(2-(2-methoxyethoxy)ethoxy)-ethoxy)phenyl)amino)pyrimidin-4-yl)oxy)naphthalen-1-yl)ureido)phenyl)morpholine-4-sulfonamide], in data set [1] (test compound 10 μg/mL), the “% β-catenin induction” value is −6%.

As for `C#Cc1cc(Nc2nccc(Oc3ccc(NC(=O)Nc4cc(C(C)(C)C)cc(NS(C)(=O)=O)c4OC)c4ccccc34)n2)cc(C(=O)NCCOCCOCCOC)c1` [Example 16, 3-((4-((4-(3-(5-(tert-Butyl)-2-methoxy-3-(methylsulfonamido)phenyl)ureido)naphthalen-1-yl)oxy)pyrimidin-2-yl)amino)-5-ethynyl-N-(2-(2-(2-methoxyethoxy)ethoxy)ethyl)benzamide], the “activity in T cell driven model of colonic inflammation (ratios of colon weight to length)” value in [2] (adoptive transfer) is reported as “displayed significant activity”. Further, the “levels of pro-inflammatory cytokines in samples of colon tissue” value in data set [2] is “significantly reduced levels of pro-inflammatory cytokines”. Further, the “increases in revertant colonies” value in data set [3] is “no dose-related or statistically significant increases in revertant colonies”. Also, the “effect on the binding of B-Raf (V600E) to its standard ligand” value in data set [4] was “did not have any significant effect”. In addition, the “effect on the binding of B-Raf to its standard ligand” value in [5] is “did not have any significant effect”. Moreover, the “selectivity compared to the Reference Compound” value in data set [6] is listed as “substantially improved selectivities”. The “activity in TNBS model of colonic inflammation (histopathology analysis)” value in data set [7] is on record as “displayed substantial activity”. For the same molecule, the “cytokine (IL-1β, IL-6 and IL-8) release compared to the DMSO control” value in [8] is recorded as “significantly inhibited”. In addition, in [9], the “metabolism at the naphthalene moiety” value is “no products were noted that could be connected to metabolism at the naphthalene moiety” and the “number of metabolites resulting from oxidation on the polyethylene glycol chain of the amide moiety” value is recorded as 8.

For orientation: % Inhibition means the share of the control response that was lost under treatment. Low values mean a weak effect, high ones a strong effect. For `COc1cc(Nc2cc(Oc3ccc(NC(=O)Nc4cc(C(C)(C)C)cc(NS(C)(=O)=O)c4OC)c4ccccc34)ccn2)cc(C(=O)NCCN2CCOCC2)c1` [Example 27, 3-((4-((4-(3-(5-(tert-Butyl)-2-methoxy-3-(methylsulfonamido)phenyl)ureido)naphthalen-1-yl)oxy)pyridin-2-yl)amino)-5-methoxy-N-(2-morpholinoethyl)benzamide], in data set [2] (3 mg/kg BID oral gavage, colon weight:length, induction window between naïve and vehicle animals), the “% Inhibition” value is listed as 99%. Besides, the “levels of pro-inflammatory cytokines in samples of colon tissue” value in data set [2] is recorded as “significantly reduced levels of pro-inflammatory cytokines”. Besides, in data set [3], the “increases in revertant colonies” value was “no dose-related or statistically significant increases in revertant colonies”. Moreover, the “effect on the binding of B-Raf (V600E) to its standard ligand” value in data set [4] is “did not have any significant effect”. Moreover, the “effect on the binding of B-Raf to its standard ligand” value in [5] is “did not have any significant effect”. The “activity in TNBS model of colonic inflammation (histopathology analysis)” value in [7] is recorded as “displayed substantial activity”. Moreover, the “cytokine levels in anterior and posterior segments of the eyes” value in [10] is given as “significantly reduced cytokine levels”. Further, the “cytokine (IL-1β, IL-6 and IL-8) release compared to the DMSO control” value in data set [8] is reported as “significantly inhibited”.

As to `C#Cc1cc(Nc2cc(Oc3ccc(NC(=O)Nc4cc(C(C)(C)C)cc(NS(C)(=O)=O)c4OC)c4ccccc34)ccn2)cc(C(=O)NCCOCCOCCOC)c1` [Example 54, 3-((4-((4-(3-(5-(tert-Butyl)-2-methoxy-3-(methylsulfonamido)phenyl)ureido)naphthalen-1-yl)oxy)pyridin-2-yl)amino)-5-ethynyl-N-(2-(2-(2-methoxyethoxy)ethoxy)ethyl)benzamide], in [1] (test compound 5 μg/mL), the “% β-catenin induction” value is given as 5%.

Take `C#Cc1cc(Nc2cc(Oc3ccc(NC(=O)Nc4cc(C(C)(C)C)cc(NS(C)(=O)=O)c4OC)c4ccccc34)ccn2)cc(C(=O)N[C@H](C)COCCOCCOC)c1` [Example 68, (R)-3-((4-((4-(3-(5-(tert-Butyl)-2-methoxy-3-(methylsulfonamido)phenyl)ureido)-naphthalen-1-yl)oxy)pyridin-2-yl)amino)-5-ethynyl-N-(1-(2-(2-methoxyethoxy)ethoxy)-propan-2-yl)benzamide]: the “% β-catenin induction” value in [1] (test compound 5 μg/mL) turned out to be 2%.

Regarding `C#CC(C)(C)c1cc(NC(=O)Nc2ccc(Oc3ccnc(Nc4cc(C)c5[nH]ncc5c4)n3)c3ccccc23)n(-c2ccc(C)cc2)n1` [Ref Cpd A], the “% Inh (inhibition at 5 μM reported instead)” value in [11] (CYP2C9, 0 min preincubation) is 31^[†] %; in data set [11] (CYP2C9, 30 min preincubation), 66^[†] %.
